How the values were obtained:
[1] = tested on: genotype 1a H-77 replicon; experiment: HCV-1a replicon potency in RLuc-1 cells, bioluminescence; type: cell-based; conditions: for HCV-1a Replicon Selectivity Index: CC50/EC50, genotype 1a replicon; for EC50: Hepatitis C virus, 72 h, read-out: HCV-1a Replicon EC50 (μM)
[2] = Cytotoxicity in HCV-1a replicon cells, Promega CellTiter-Glo cell viability assay

SMILES | HCV-1a Replicon Selectivity Index [1] | EC50 [1] [µM] | CC50 at 72 h [2] [µM]
Nc1nc(N2CCN(C(=O)CCc3ccccc3)CC2)c2nc(-c3ccc(F)cc3)[nH]c2n1 [Example 438, 1-(4-(2-amino-8-(4-fluorophenyl)-9H-purin-6-yl)piperazin-1-yl)-3-phenylpropan-1-one] | 0.6 | 10.3 | 6.1
COc1ccc(-c2nc3c(N4CCN(C(=O)COc5ccc(Cl)cc5)CC4)nc(N)nc3[nH]2)cc1OC [Example 390, 1-(4-(2-amino-8-(3,4-dimethoxyphenyl)-9H-purin-6-yl)piperazin-1-yl)-2-(4-chlorophenoxy)ethanone] | 9.9 | 1.7 | 17.3
CN(C(=O)CN1CCN(c2nc(N)nc3[nH]c(-c4ccc(F)cc4)nc23)CC1)c1ccccc1 [Example 413, 2-(4-(2-amino-8-(4-fluorophenyl)-9H-purin-6-yl)piperazin-1-yl)-N-methyl-N-phenylacetamide] | 0.5 | > 44.4 | 20.3
COc1cccc(C(=O)N2CCN(c3nc(N)nc4[nH]c(-c5ccc(F)cc5)nc34)CC2)c1 [Example 402, (4-(2-amino-8-(4-fluorophenyl)-9H-purin-6-yl)piperazin-1-yl)(3-methoxyphenyl)methanone] | – | > 44.4 | > 44.4
Nc1nc(N[C@H]2CCN(C(=O)COc3ccc(Cl)cc3)C2)c2nc(CCc3ccc(F)cc3)sc2n1 [Example 147, 5-amino-2-[2-(4-fluorophenyl)ethyl]-7-(1-(4-chlorophenoxyacetyl)pyrrolidin-3-(S)-ylamino)-thiazolo[5,4-d]pyrimidine] | 0.5 | 31 | 15.5
Nc1nc(N2CCN(C(=O)COc3ccc(Cl)cc3)CC2)c2nc(CCc3ccccc3)sc2n1 [Example 118, 5-amino-7-[4-(4-chlorophenoxyacetyl)piperazin-1-yl]-2-(2-phenylethyl)thiazolo[5,4-d]pyrimidine] | 8.4 | 3.6 | 30.3
Nc1nc(N2CCN(C(=O)COc3ccc(Cl)cc3)CC2)c2nc(-c3ccc(Cl)c(Cl)c3)sc2n1 [Example 116, 5-amino-7-[4-(4-chlorophenoxyacetyl)piperazin-1-yl]-2-(3,4-dichlorophenyl)thiazolo[5,4-d]pyrimidine] | 0.8 | > 44.4 | 37.2
Nc1nc(N2CCN(C(=O)COc3ccccc3)CC2)c2nc(CCc3ccc(F)cc3)sc2n1 [Example 134, 5-amino-2-[2-(4-fluorophenyl)ethyl]-7-(4-[2-phenoxyacetyl]piperazin-1-yl)-thiazolo[5,4-d]pyrimidine] | – | > 44.4 | > 44.4
Nc1nc(N2CCN(C(=O)COc3ccc(Cl)cc3)CC2)c2nc(-c3cccnc3)sc2n1 [Example 121a, 5-amino-7-[4-(4-chlorophenoxyacetyl)piperazin-1-yl]-2-(pyridine-3-yl)thiazolo[5,4-d]pyrimidine] | >888 | 0.05 | > 44.4
CC(c1ccc(Cl)cc1)c1nc2c(N3CCN(C(=O)COc4ccc(Cl)cc4)CC3)nc(N)nc2s1 (stereo not drawn) [Example 125, 5-amino-7-[4-(4-chlorophenoxyacetyl)piperazin-1-yl]-2-(1-(4-chlorophenyl)ethyl)thiazolo[5,4-d]pyrimidine] | 1.1 | 22.6 | 24.4
CCC(c1ccc(F)cc1)c1nc2c(N3CCN(C(=O)COc4ccc(Cl)cc4)CC3)nc(N)nc2s1 (stereo not drawn) [Example 150, 5-amino-2-[1-(4-fluorophenyl)propyl]-7-(4-[2-(4-chlorophenoxy)acetyl]piperazin-1-yl)thiazolo[5,4-d]pyrimidine] | 2.0 | 13.1 | 25.9
Nc1nc(N2CCN(C(=O)COc3ccc(Cl)cc3)CC2)c2nc(CCc3cccs3)sc2n1 [Example 154, 5-amino-2-(2-thiophen-2-ylethyl)-7-(4-[2-(4-chloro-phenoxy)acetyl]piperazin-1-yl)thiazolo[5,4-d]pyrimidine] | – | > 44.4 | > 44.4
CC(C)(C)c1nc2c(N3CCN(C(=O)COc4ccc(Cl)cc4)CC3)nc(N)nc2[nH]1 [Example 399, 1-(4-(2-amino-8-tert-butyl-9H-purin-6-yl)piperazin-1-yl)-2-(4-chlorophenoxy)ethanone] | 1.2 | 24.7 | 29.1
Nc1nc(NC2CCCN(C(=O)OCc3ccccc3)C2)c2nc(CCc3ccc(F)cc3)sc2n1 (stereo not drawn) [Example 145, 5-amino-2-[2-(4-fluorophenyl)ethyl]-7-(1-benzyloxycarbonylpiperidin-3-ylamino)-thiazolo[5,4-d]pyrimidine] | 2.1 | 13.1 | 27.6
Cc1cccc(NC(=O)N2CCN(c3nc(N)nc4sc(-c5ccccc5)cc34)CC2)c1 [Example 330, 4-(2-amino-6-phenylthieno[2,3-d]pyrimidin-4-yl)-N-m-tolylpiperazine-1-carboxamide] | 6.0 | 7.2 | 43.5
Nc1nc(N2CCN(C(=O)COc3ccc(Cl)cc3)CC2)c2nc(C3(c4ccc(Cl)cc4)CC3)sc2n1 [Example 117, 5-amino-7-[4-(4-chlorophenoxyacetyl)piperazin-1-yl]-2-(1-(4-chlorophenyl)cyclopropyl)thiazolo[5,4-d]pyrimidine] | 1.3 | 17.7 | 23.3
Nc1nc(N2CCN(C(=O)COc3ccc(Cl)cc3)CC2)c2nc(-c3ccc(OC(F)(F)F)cc3)[nH]c2n1 [Example 395, 1-(4-(2-amino-8-(4-(trifluoromethoxy)phenyl)-9H-purin-6-yl)piperazin-1-yl)-2-(4-chlorophenoxy)ethanone] | 1.1 | 9.9 | 10.7
Nc1nc(N2CC[C@@H](NC(=O)COc3ccc(Cl)cc3)C2)c2nc(CCc3ccc(F)cc3)sc2n1 [Example 143, 5-amino-2-[2-(4-fluorophenyl)ethyl]-7-(3-(R)-[2-(4-chlorophenoxy)-acetylamino]pyrrolidin-1-yl)-thiazolo[5,4-d]pyrimidine] | 0.7 | > 44.4 | 30.4
Cn1c(-c2ccc(F)cc2)nc2c(N3CCN(C(=O)COc4ccc(Cl)cc4)CC3)nc(N)nc21 [Example 430, 1-(4-(2-amino-8-(4-fluorophenyl)-9-methyl-9H-purin-6-yl)piperazin-1-yl)-2-(4-chlorophenoxy)ethanone] | 54.0 | 0.3 | 15.1
Cc1cccc(NC(=O)N2CCCN(c3nc(N)nc4[nH]c(-c5ccc(F)cc5)nc34)CC2)c1 [Example 422, 4-(2-amino-8-(4-fluorophenyl)-9H-purin-6-yl)-N-m-tolyl-1,4-diazepane-1-carboxamide] | 1.3 | 26.1 | 35.1
Nc1nc(N2CCN(C(=O)COc3ccc(Cl)cc3)CC2)c2nc(-c3ccc(C(F)(F)F)cc3)[nH]c2n1 [Example 394, 1-(4-(2-amino-8-(4-(trifluoromethyl)phenyl)-9H-purin-6-yl)piperazin-1-yl)-2-(4-chlorophenoxy)ethanone] | 1.2 | 9 | 10.6

— patent US9730944B2, “Antiviral activity of novel bicyclic heterocycles” (priority 2010, dated 2017)
